Measurements taken from patent US9457007B2, “Prenylflavanone compounds for modulating diabetes” (NATUREWISE BIOTECH & MEDICALS CORPORATION, priority 2013, dated 2016).
“Also recorded” adds a separate entry of the source.

Key:
Assay type in all cases: in vivo
[1] = tested on: STZ-induced diabetic mice; experiment: Feedstuff intake of the diabetic mice; conditions: propolins study
Procedure: (§1) The male FBV mice of 5 weeks old, commercially available from BioLASCO Co., Ilan, Taiwan, were acclimatized for 1 week, prior to administration of streptozotocin (STZ) at 40 mg/kg for 3 consecutive days. STZ was formulated with an aqueous solution of sodium citrate (pH 4.5, 73.5 mg/5 mL) on ice, and then 100 μL of the formulation was dosed by intraperitoneal injection. From day 2 in the 3 consecutive days, the mice were dosed with 5% (w/v) glucose water for 6 consecutive days. After allowing the mice to rest for 10 days, blood glucose levels were measured. After administration of STZ for 1 week, about 5 μL of blood was collected from each of the mice at the tail vein, and was assayed for blood glucose by a blood glucose monitor and chip (FORA, California, U.S.A.). After 1 week, blood glucose was detected once more, and whether blood glucose was smooth or not was evaluated prior to grouping. The values of blood glucose in all of the mice induced to suffer from diabetes were brought to fall within about 300±50 mg/dL.
(§2) An appropriate amount of the Taiwan Green Propolis alcohol extract was dissolved with 3 ml 95% alcohol and then uniformly mixed with 80 μL Tween 80 as a cosolvent; after concentrating under reduced pressure for removal of alcohol, it was dispersed into 16 ml water to give a liquid mixture of the Taiwan Green Propolis extract. This mixture was fed by 200 μL gavage into the diabetic mice designated as the Taiwan Green Propolis extract group.
(§3) An appropriate amount of propolins and its relevant derivatives, such as PPA, PPB, PPC, PPD, PPE, PPF, PPG, PPH, PPI or PPJ, was dissolved with 3 ml 95% alcohol and then uniformly mixed with 80 μL Tween 80; after concentrating under reduced pressure for removal of alcohol, it was uniformly dispersed into 16 ml water to give a liquid mixture of propolins. This mixture was fed by 200 μL gavage into the diabetic mice designated as the propolins and its relevant derivative group.
(§4) Sitagliptin (trade name: Januvia), commercially available from American Merck Co., was used as the DPP4 inhibitor. An appropriate amount of sitagliptin was dissolved in water to provide a final concentration allowing administration of the mice at a dose of 370 mg/kg. In the following example, Januvia was representative of the DPP4 inhibitors and acted as a positive control group for reference.
(§5) Tween 80 (80 μL) was mixed into 16 ml water to give a placebo, which was fed by 200 μL gavage into the STZ-induced diabetic mice or normal mice (i.e., the mice without induction for diabetes). Oral gavage was carried out once at a fixed time each day, and weight, feedstuff intake and water intake were measured weekly until tests were finished at 12-13 weeks.

[2] = tested on: STZ-induced diabetic mice; experiment: Water intake of the diabetic mice; conditions: propolins study
Procedure: as §1, §2, §3, §4, §5

[3] = tested on: STZ-induced diabetic mice; experiment: Blood glucose in the STZ-induced diabetic mice; conditions: propolins study; for modulation of blood glucose: 8 weeks, dose 1.2-2.4% of the Januvia dose
Procedure: as §1, with “mg/dL. […]” for “mg/dL.”
as §3, §4, §5

[4] = tested on: STZ-induced diabetic mice; experiment: Oral glucose tolerance test (OGTT); set-up: reduction of AUC compared with the STZ group / extent of reduction of AUC compared with the STZ group: concentration or dose not given beside the values; conditions: propolins study; for AUC value for blood glucose (integral area) / extent of reduction of AUC compared with the STZ group: OGTT
Procedure: as §1
After administration of the testing substance to the animals for 12 weeks, the OGTT test was performed for evaluation of secretion and effects of insulin. All of the mice in the test were administered with the testing substance and then fasted for 4 hours prior to blood sampling at the first point called point 0. Afterwards, the mice were fed by oral gavage with 200 μL glucose in water, equivalent to a dose of 1.0 g/kg. After administration, blood was collected for an assay of blood glucose at 15, 30, 60, 120 and 180 minutes, respectively. Therefore, a total of 6 points, including points at 0, 15, 30, 60, 120 and 180 minutes, were obtained. About 5 μL of blood was collected from each of the mice at the tail vein and was then assayed for blood glucose by the blood glucose monitor and chip (FORA, California, U.S.A.). The blood glucose values at the Y-axis were plotted against the time points at the X-axis. Each group was calculated for an area under curve for comparison. The efficacy in regulation of blood glucose was evaluated by the area showing a relationship between the testing substance and secretion and effects of insulin.

[5] = after administration for 8 weeks by gavage daily, PPC 9.0, PPD 6.75, PPF 4.5, PPG 4.5, Januvia 370 mg/kg/mouse
[6] = 0 point, PPC 9.0, PPD 6.75, PPF 4.5, PPG 4.5, DPP4I 370 mg/kg/mouse
[7] = 30-minute time point after glucose in water

CC(C)=CCC/C(C)=C/Cc1cc([C@@H]2CC(=O)c3c(O)cc(O)cc3O2)cc(O)c1O [PPF, (S,E)-2-(3-(3,7-dimethylocta-2,6-dien-1-yl)-4,5-dihydroxyphenyl)-5,7-dihydroxy-3,4-dihydro-2H-1-benzopyran-4-one]
effect on feedstuff intake [1]: significantly inhibited feedstuff intake
feedstuff intake ([1]; at 1 week): 6.3 g/mouse
feedstuff intake ([1]; at 6 weeks): 7.0 g/mouse
feedstuff intake ([1]; at 8 weeks): 6.3 g/mouse
water intake ([2]; at 1 week): 8.0 mL/mouse
water intake ([2]; at 6 weeks): 13.0 mL/mouse
water intake ([2]; at 8 weeks): 10.0 mL/mouse
modulation of blood glucose [3]: effectively highly modulated
blood glucose [3, 5]: 398 mg/dL
blood glucose ([3]; at 0 week): 330 mg/dL
value of blood glucose in glucose tolerance test [4, 6]: about 390 mg/dL
value of blood glucose in glucose tolerance test [4, 7]: about 525 mg/dL
value of blood glucose in glucose tolerance test ([4]; 120-minute time point): about 420 mg/dL
value of blood glucose in glucose tolerance test ([4]; 180-minute time point): 430 mg/dL
AUC value for blood glucose (integral area) [4]: about 8.2×10^4
extent of reduction of AUC compared with the STZ group [4]: 15.0%

CC(C)=CCC/C(C)=C/Cc1c([C@@H]2CC(=O)c3c(cc(O)c(CC=C(C)C)c3O)O2)ccc(O)c1O [PPG, (S,E)-2-(2-(3,7-dimethylocta-2,6-dien-1-yl)-3,4-dihydroxyphenyl)-5,7-dihydroxy-6-(3-methylbut-2-en-1-yl)-3,4-dihydro-2H-1-benzopyran-4-one]
effect on feedstuff intake [1]: significantly inhibited feedstuff intake
feedstuff intake ([1]; at 1 week): 4.8 g/mouse
feedstuff intake ([1]; at 6 weeks): 7.0 g/mouse
feedstuff intake ([1]; at 8 weeks): 7.2 g/mouse
water intake ([2]; at 1 week): 6.5 mL/mouse
water intake ([2]; at 6 weeks): 9.0 mL/mouse
water intake ([2]; at 8 weeks): 9.0 mL/mouse
modulation of blood glucose [3]: higher activity for modulation of blood glucose than DPP4I; also recorded: the most effective compound for modulating blood glucose
blood glucose [3, 5]: 298 mg/dL
blood glucose ([3]; at 0 week): 330 mg/dL
value of blood glucose in glucose tolerance test [4, 6]: about 385 mg/dL
value of blood glucose in glucose tolerance test [4, 7]: about 525 mg/dL
value of blood glucose in glucose tolerance test ([4]; 120-minute time point): about 380 mg/dL
value of blood glucose in glucose tolerance test ([4]; 180-minute time point): 350 mg/dL
AUC value for blood glucose (integral area) [4]: about 7.8×10^4
extent of reduction of AUC compared with the STZ group [4]: 31.7%
efficacy in glucose tolerance test ([4]; compared to the STZ group): more excellent efficacy

CC(C)=CCC/C(C)=C/Cc1c([C@@H]2CC(=O)c3c(O)cc(O)cc3O2)ccc(O)c1O [PPD, (S,E)-2-(2-(3,7-dimethylocta-2,6-dien-1-yl)-3,4-dihydroxyphenyl)-5,7-dihydroxy-3,4-dihydro-2H-1-benzopyran-4-one]
effect on feedstuff intake [1]: significantly inhibited feedstuff intake
feedstuff intake ([1]; at 1 week): 7.2 g/mouse
feedstuff intake ([1]; at 6 weeks): 7.2 g/mouse
feedstuff intake ([1]; at 8 weeks): 7.2 g/mouse
effect on water intake [2]: significantly inhibited water intake
water intake ([2]; at 1 week): 8.0 mL/mouse
water intake ([2]; at 6 weeks): 14.0 mL/mouse
water intake ([2]; at 8 weeks): 16.0 mL/mouse
modulation of blood glucose [3]: highly effectively modulated
blood glucose [3, 5]: 400 mg/dL
blood glucose ([3]; at 0 week): 330 mg/dL
value of blood glucose in glucose tolerance test [4, 6]: about 380 mg/dL
value of blood glucose in glucose tolerance test [4, 7]: about 530 mg/dL
value of blood glucose in glucose tolerance test ([4]; 120-minute time point): about 490 mg/dL
value of blood glucose in glucose tolerance test ([4]; 180-minute time point): 460 mg/dL
AUC value for blood glucose (integral area) [4]: about 8.7×10^4
extent of reduction of AUC compared with the STZ group [4]: 16.2%

CC(C)=CCC/C(C)=C/Cc1c(O)cc2c(c1O)C(=O)C[C@@H](c1ccc(O)c(O)c1)O2 [PPC, (S,E)-2-(3,4-dihydroxyphenyl)-6-(3,7-dimethylocta-2,6-dien-1-yl)-5,7-dihydroxy-3,4-dihydro-2H-1-benzopyran-4-one]
effect on feedstuff intake [1]: significantly inhibited feedstuff intake
feedstuff intake ([1]; at 1 week): 7.2 g/mouse
feedstuff intake ([1]; at 6 weeks): 8.0 g/mouse
feedstuff intake ([1]; at 8 weeks): 7.9 g/mouse
effect on water intake [2]: significantly inhibited water intake
water intake ([2]; at 1 week): 8.2 mL/mouse
water intake ([2]; at 6 weeks): 16.0 mL/mouse
water intake ([2]; at 8 weeks): 24.0 mL/mouse
modulation of blood glucose [3]: highly effectively modulated
blood glucose [3, 5]: 298 mg/dL
blood glucose ([3]; at 0 week): 330 mg/dL
value of blood glucose in glucose tolerance test [4, 6]: about 350 mg/dL
value of blood glucose in glucose tolerance test [4, 7]: about 450 mg/dL
value of blood glucose in glucose tolerance test ([4]; 120-minute time point): about 430 mg/dL
value of blood glucose in glucose tolerance test ([4]; 180-minute time point): 400 mg/dL
AUC value for blood glucose (integral area) [4]: about 8.0×10^4
extent of reduction of AUC compared with the STZ group [4]: 28.2%
